The source of these data is ChEMBL document CHEMBL1153131, “Synthesis and antitumor activity of novel 2',3'-dideoxy-2',3'-diethanethionucleosides bearing 1,2,3-triazole residues” (Bioorg Med Chem Lett, 2010).

Assay type in all cases: functional, cell-based; call rule not given here
The subject of assay [1] is A549. The assay is described as follows: Cytotoxicity against human A549 cells after 72 hrs by MTT assay. The conditions noted are these: A549, 72 h. On the technique in general: Tetrazolium dyes change colour on reduction, which living cells bring about.
The nature of assay [2]: Cytotoxicity against human LAC cells after 72 hrs by MTT assay.
The test system of assay [3] is HepG2. The assay is described as follows: Cytotoxicity against human HepG2 cells after 72 hrs by MTT assay.
In assay [4] the test system is HeLa. The assay is described as follows: Cytotoxicity against human HeLa cells after 72 hrs by MTT assay.
[5] abbreviates: Homo sapiens, LAC, 72 h, read-out: EC50.
Setting [6] is: Homo sapiens, HepG2, 72 h, read-out: EC50.

Usually EC50 stands for the concentration at which the effect is half-maximal.

Regarding `CCS[C@@H]1[C@H](SCC)[C@@H](CO)O[C@H]1n1cc(-c2ccccc2)nn1`, the EC50 in assay [1] turned out to be 44.1 µM; in assay [2] (setting [5]) it was 20.7 µM; in assay [3] (setting [6]), 9.6 µM; in assay [4], 11.2 µM.
Regarding `CCS[C@@H]1[C@H](SCC)[C@@H](CO)O[C@H]1n1cc(C)c(=O)[nH]c1=O`, the EC50 in assay [1] was 86.4 µM; in assay [2] (lac), “Not Active”; in assay [3] (hepg2), “Not Active”; in assay [4] it was 29.5 µM.
Regarding `CCS[C@@H]1[C@H](SCC)[C@@H](CO)O[C@H]1n1cc(-c2ccc(OC)cc2)nn1`, the EC50 in assay [1] was determined as 23.4 µM; in assay [2] (setting [5]) it was 14.5 µM; in assay [3] (setting [6]) it was 11 µM; in assay [4] it was 5.69 µM.
For the compound `CCS[C@@H]1[C@H](SCC)[C@@H](CO)O[C@H]1n1cc(Cn2cc(C)c(=O)[nH]c2=O)nn1`, the concentration giving a half-maximal response (EC50) in assay [1], in assay [2] (setting [5]), in assay [3] (setting [6]) and in assay [4] was greater than 100 µM in each case.
Regarding `CCS[C@@H]1[C@H](SCC)[C@@H](CO)O[C@H]1n1cc(-c2ccc(F)cc2)nn1`, the EC50 in assay [1] was found to be 20.2 µM; in assay [2] (setting [5]), 16.2 µM; in assay [3] (setting [6]) it was 9.62 µM; in assay [4], 6.92 µM.
For `CCS[C@@H]1[C@H](SCC)[C@@H](CO)O[C@H]1n1cc(Cn2ccc(N)nc2=O)nn1`, in that order: greater than 100 µM, greater than 100 µM, greater than 100 µM and greater than 100 µM.
For `O=c1[nH]c(=O)n([C@H]2C[C@H](O)[C@@H](CO)O2)cc1F` [FLOXURIDINE], in that order: 9.74 µM, 32.1 µM, 18.8 µM and 10.3 µM.
For `CCS[C@@H]1[C@H](SCC)[C@@H](CO)O[C@H]1n1cc(CO)nn1`, in that order: greater than 100 µM, greater than 100 µM, greater than 100 µM and greater than 100 µM.
As to `CCS[C@@H]1[C@H](SCC)[C@@H](CO)O[C@H]1n1ccc(=O)[nH]c1=O`, the EC50 in assay [1] is 87.4 µM; in assay [2] (lac), “Not Active”; in assay [3] (setting [6]), 74.7 µM; in assay [4] it was 75.7 µM.
Regarding `CCS[C@@H]1[C@H](SCC)[C@@H](CO)O[C@H]1n1ccc(N)nc1=O`, the concentration for a half-maximal effect (EC50) is 86.4 µM in assay [1], “Not Active” in assay [2] (lac), 116 µM in assay [3] (setting [6]) and 177 µM in assay [4].
In the case of `CCS[C@@H]1[C@H](SCC)[C@@H](CO)O[C@H]1n1cc(C(=O)NC)nn1`, the EC50 in assay [1], in assay [2] (setting [5]), in assay [3] (setting [6]) and in assay [4] was greater than 100 µM throughout.
